Assay results published in the CATMoS acute toxicity set (Mansouri et al. 2021).

Test: GHS categories as the set defines them, by LD50: 1 up to 5, 2 up to 50, 3 up to 300, 4 up to 2000, 5 above 2000 mg/kg
Conditions: rat; in vivo; po

| SMILES | GHS category |
| --- | --- |
| Cc1cc(C(=O)Nc2cccc(C(F)(F)F)c2)n[nH]1 | 5 |
| COc1nc(Nc2ccccc2)nc(Nc2ccc(C=Cc3ccc(Nc4nc(Nc5ccccc5)nc(OC)n4)cc3S(=O)(=O)O)c(S(=O)(=O)O)c2)n1 | 5 |
| CCCNC(=O)c1cnc2cccc(C)n2c1=O | 3 |
| CO[Si](CCCCl)(OC)OC | 5 |
| CNC(=O)C(=NNc1ccc(Cl)c(Cl)c1)C(C)=O | 5 |
| CC(C)OC(=O)C(C)(C)Oc1ccc(C(=O)c2ccc(Cl)cc2)cc1 | 5 |
| O=S(O)c1ccc(Cl)cc1 | 4 |
| CC1Oc2cc(C(=O)c3ccc(Cl)cc3)ccc2N(C)C1=O (centres undefined) | 5 |
| CCO[Si](CCCSSCCC[Si](OCC)(OCC)OCC)(OCC)OCC | 5 |
| O=[N+]([O-])c1ccc(OCC2CO2)cc1 (centres undefined) | 5 |
| O=C1OC(=O)c2ccc3c4ccc5c6c(ccc(c7ccc1c2c73)c64)C(=O)OC5=O | 5 |
| CCNC(=O)[C@@H]1CCCN1C(=O)[C@H](CCCN=C(N)N)NC(=O)[C@H](CC(C)C)NC(=O)[C@@H](COC(C)(C)C)NC(=O)[C@H](Cc1ccc(O)cc1)NC(=O)[C@H](CO)NC(=O)[C@H](Cc1c[nH]c2ccccc12)NC(=O)[C@H](Cc1cnc[nH]1)NC(=O)[C@@H]1CCC(=O)N1 | 4 |
| CC/C=C\CCOC(=O)C(C)C | 5 |
| CC(=O)OCCCCCCCCCOC(C)=O | 5 |
| O=S(=O)(NCl)c1ccccc1 | 4 |
| CCCCCCCCCCCCCCCCOC(=O)C(CC)CCCC (centres undefined) | 5 |
| COc1ccccc1NC(=O)c1cc2ccccc2c(N=Nc2ccc(C(N)=O)cc2)c1O | 5 |
| O=C1c2ccccc2C(=O)c2c(O)ccc(O)c21 | 5 |
| CCCOc1ccc(-c2ccc(C#N)cc2)cc1 | 5 |
| C#CCN(C(C)=O)C(=O)Oc1cccc2c1OC(C)(C)O2 | 4 |
| CCOC(=O)NC1CCCN(c2nc(N)c3cc(OC)c(OC)cc3n2)C1 (centres undefined) | 4 |
| Nc1ccc(F)cc1-c1ccc(Cl)c(Cl)c1 | 5 |
| CCOC(=O)C1OC1C(=O)NC(CC(C)C)C(=O)NCCC(C)C (centres undefined) | 5 |
| Nc1ccc(S(=O)(=O)Nc2ncccn2)cc1 | 5 |
| CC(C)Br | 5 |
| O=C1NC(=O)c2ccc3c4cccc5cccc(c6ccc1c2c63)c54 | 5 |
| CC1(C)C2CC[C@]3(C)C(CC=C4[C@H]5C[C@](C)(C(=O)O)CC[C@]5(C)CC[C@]43C)[C@@]2(C)CC[C@@H]1OC(=O)C=CC(=O)O (some centres undefined) | 5 |

| SMILES | GHS category |
| --- | --- |
| CCCCCC1=C(CC(=O)OC)CCC1=O | 5 |
| CC1(C)S[C@@H]2[C@H](NC(=O)COc3ccccc3)C(=O)N2[C@H]1C(=O)O | 4 |
| O=C1Cc2cccc(F)c2N1 | 4 |
| CO[C@]1(C)CC[C@@]23C[C@@H]1C(C)(C)[C@@H]2CC[C@H]3C | 5 |
| CN(C)C1=NC(=O)C(c2ccccc2)O1 (centres undefined) | 5 |
| CCC(COC(=O)c1ccccc1C(=O)OCC(CC)CC(C)C)CC(C)C (centres undefined) | 5 |
| CON=C(C(=O)OC)c1ccccc1CON=C(C)c1cccc(C(F)(F)F)c1 | 5 |
| NC[C@H]1O[C@H](O[C@H]2[C@H](O)[C@@H](O[C@H]3O[C@H](CO)[C@@H](O)[C@H](N)[C@H]3O)[C@H](N)C[C@@H]2N)[C@H](N)[C@@H](O)[C@@H]1O | 5 |
| CCCc1c(Cc2ccc(-c3ccccc3-c3nn[nH]n3)cc2)c(N2CCCC2)nc2ncnn12 | 4 |
| C#CCOc1cc(-n2nc(C(C)(C)C)oc2=O)c(Cl)cc1Cl | 5 |
| CCC(=O)O[C@]1(C(=O)COC(C)=O)CC[C@H]2[C@@H]3C[C@H](C)C4=CC(=O)C=C[C@]4(C)[C@H]3[C@@H](O)C[C@@]21C | 5 |
| CC(=O)Nc1ccc(Cc2ccccn2)c([N+](=O)[O-])c1 | 3 |
| O=C(NC(=O)c1ccccc1Cl)Nc1ccc(OC(F)(F)F)cc1 | 5 |
| O=C1NC(=O)c2cccc3cccc1c23 | 5 |
| CC(=O)c1c(C)c([N+](=O)[O-])c(C(C)(C)C)c([N+](=O)[O-])c1C | 5 |
| CC(C)CC(=O)OC1CC(C)CCC1C(C)C (centres undefined) | 5 |
| C[N+]1(CC(O)COc2cccc3c2CCC(=O)N3)CCC(c2ccccc2)CC1 (centres undefined) | 4 |
| COc1ccccc1N1CCN(/C(=N\CCCO)Nc2ccccc2)CC1 | 4 |
| CCCS(=O)(=O)Nc1ccc(F)c(C(=O)O)c1F | 5 |
| COC(=O)[C@H]1CCCO1 | 5 |
| Nc1nc2cc([N+](=O)[O-])ccc2o1 | 4 |
| C=C(C)CC1CCCCCCCCCCC1=O (centres undefined) | 5 |
| CCCCOC(=O)c1ccc(-n2nc(OCCCN3CCCCC3)c3ccccc32)cc1 | 4 |
| CSc1nc(N)c2c(C)coc2n1 | 5 |
| CCCC1OC(Cn2cncn2)(c2cc3ccccc3o2)OCC1(C)C (centres undefined) | 4 |
| CCCCCCCC/C=C\CCCCCCCC#N | 5 |
| CC(=O)c1ccc2cc(CC(=O)O)ccc2c1 | 5 |
